Target: T1, Smoothened (SMO) (Homo sapiens, UniProt Q99835)
T1 construct: human SMO transmembrane domain (residues 190-555) fused with N-terminal 10-His tag and thermostabilized apocytochrome b562RIL, in SMA-nanodiscs
T1 sequence (Q99835 190-555): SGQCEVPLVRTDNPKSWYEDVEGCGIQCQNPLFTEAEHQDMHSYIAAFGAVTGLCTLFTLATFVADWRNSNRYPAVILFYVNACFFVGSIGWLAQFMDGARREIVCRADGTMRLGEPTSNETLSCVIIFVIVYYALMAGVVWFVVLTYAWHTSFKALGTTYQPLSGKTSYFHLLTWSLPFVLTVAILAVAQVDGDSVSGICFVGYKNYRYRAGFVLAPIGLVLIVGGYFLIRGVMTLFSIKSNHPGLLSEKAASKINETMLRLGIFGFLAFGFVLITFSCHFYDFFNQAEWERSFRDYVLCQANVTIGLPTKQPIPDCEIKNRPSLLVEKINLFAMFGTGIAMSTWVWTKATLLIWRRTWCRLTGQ
Assay: ligand-observed 1D 1H NMR titration (line broadening), purified SMO in SMA-nanodiscs
Format: binding

| SMILES | Kd |
| --- | --- |
| CN[C@H]1CC[C@H](N(Cc2cccc(-c3ccncc3)c2)C(=O)c2sc3ccccc3c2Cl)CC1 [SAG] | 15.9 ± 4.4 nM |
| Cc1nn(-c2ccccc2)c(C)c1/C=N/N1CCN(Cc2ccccc2)CC1 [SANT-1] | 2.3 ± 1.2 nM |

Source: PMC9074879, “Solubilization, purification, and ligand binding characterization of G protein-coupled receptor SMO in native membrane bilayer using styrene maleic acid copolymer” (PeerJ, 2022)
